This series concerns mouse carcinogenicity bioassay, TD50 from CPDB. Nature of the series: DSSTox (CPDBAS) Carcinogenic Potency Database Summary Mouse Bioassay Results. In outline:
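Values are TD50 carcinogenic potencies from mouse chronic bioassays, taking the most positive result for each sex-species. Sources are published literature and NCI/NTP studies; target sites reflect author-reported positive findings.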

[1] abbreviates: TD50_Mouse_Note: TD50 is harmonic mean of more than one positive test, TargetSites_Mouse_Female: liver.
Where [2] appears, read: TD50_Mouse_Note: no positive results, TargetSites_Mouse_Female: no positive results.
Where [3] appears, read: TD50_Mouse_Note: TD50 is harmonic mean of more than one positive test, greater than ten-fold variation among TD50 values for positive res, TargetSites_Mouse_Female: liver.
Setting [4] is: TD50_Mouse_Note: TD50 is harmonic mean of more than one positive test, TargetSites_Mouse_Female: liver, lung.
Where [5] appears, read: TD50_Mouse_Note: TD50 value is overestimated as upper 99% confidence limit from study with 100% tumor incidence but no lifetable, harmoni.
[6] abbreviates: TD50_Mouse_Note: TD50 is harmonic mean of more than one positive test, TargetSites_Mouse_Female: lung.
The mark [7] stands for this setting: TargetSites_Mouse_Female: no positive results.
[8] abbreviates: TargetSites_Mouse_Female: liver.
The mark [9] stands for this setting: TD50_Mouse_Note: TD50 is harmonic mean of more than one positive test, TargetSites_Mouse_Female: stomach.
[10] abbreviates: TD50_Mouse_Note: TD50 is harmonic mean of more than one positive test, TargetSites_Mouse_Female: liver, vascular system.

Drawing on PubChem BioAssay AID1199 (EPA DSSTox, 2008), this text covers Potency and outcome for 78 compounds.

Activity calls are given as the source filed them.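 How the source made its calls: active means a tumour-causing dose and a tumour site recorded for mice in at least one sex group; inconclusive means only government mouse studies exist and were judged inadequate; inactive means mouse studies exist but none gave tumours.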

Consider `ClC(Cl)(Cl)C(Cl)(Cl)Cl`, for which, under setting [1], the Potency is 1.43 mmol/kg/day. As for `O=C/C=C/c1ccccc1`, the outcome under setting [2] is “inactive; no positive results”.

As to `C[N+](C)(C)CCCl`, under setting [2], the outcome is “inactive; no positive results”. On to `OCl`, for which the outcome under setting [2] is “inactive; no positive results”. For the compound `C=C(C)C#N`, the outcome under setting [2] was “inactive; no positive results”. For `CC(I)C1OCC(CO)O1` (stereo not drawn), the Potency (TargetSites_Mouse_Female: harderian gland, pituitary gland) is 0.535 mmol/kg/day.

Consider `Nc1ccc(NCCO)c([N+](=O)[O-])c1`, for which, where the note is “TD50_Mouse_Note: no positive results, TargetSites_Mouse_Female: NTP bioassay inadequate”, the outcome was “inactive; no positive results”.

Take `Oc1cccc2cccnc12`: the outcome under setting [2] is “inactive; no positive results”. As to `CCOC(=O)C(O)(c1ccc(Cl)cc1)c1ccc(Cl)cc1`, the Potency under setting [3] was 0.289 mmol/kg/day.

As to `COc1ccc([N+](=O)[O-])cc1N=Nc1c(O)c(C(=O)Nc2cccc([N+](=O)[O-])c2)cc2ccccc12`, the outcome under setting [2] was “inactive; no positive results”. Regarding `ClC1C(Cl)C(Cl)C(Cl)C(Cl)C1Cl` (stereo not drawn), the Potency reads like this: under setting [1], 0.0956 mmol/kg/day; under setting [4], 0.106 mmol/kg/day; (TD50_Mouse_Note: TD50 is harmonic mean of more than one positive test, harmonic mean of TD50 includes a value for upper 99% confidence li, TargetSites_Mouse_Female: liver) 0.0509 mmol/kg/day; under setting [5], 0.0228 mmol/kg/day. For `C1CO1`, the Potency (TD50_Mouse_Note: TD50 is harmonic mean of more than one positive test, TargetSites_Mouse_Female: harderian gland, hematopoietic system, lung, mammary gland, uterus) is 1.45 mmol/kg/day. On to `C=CCNNCC=C`, for which the Potency under setting [6] was 0.183 mmol/kg/day.

Turning to `Nc1nc(=S)c2ncn([C@H]3C[C@H](O)[C@@H](CO)O3)c2[nH]1`, for the setting “TD50_Mouse_Note: only experiment is NCI/NTP bioassay inadequate, TargetSites_Mouse_Female: NTP bioassay inadequate”, the outcome is reported as “ntp bioassay inadequate”. Turning to `CNC(=O)O/N=C(\SC)C(=O)N(C)C`, the outcome under setting [2] was “inactive; no positive results”. On to `CCOc1ccc(NC(C)=O)cc1N`, for which the Potency under setting [7] is 10.7 mmol/kg/day. In the case of `CC/C(C)=N/O`, the Potency under setting [7] is 6.13 mmol/kg/day.

Turning to `COc1ccc(C)cc1N`, for the setting “TD50_Mouse_Note: TD50 is harmonic mean of more than one positive test, TargetSites_Mouse_Female: liver, urinary bladder”, the Potency was 0.396 mmol/kg/day. `C=C1CC[C@H](O)C/C1=C/C=C1\CCC[C@]2(C)[C@@H]([C@H](C)/C=C/[C@H](C)C(C)C)CC[C@@H]12`: the outcome (TD50_Mouse_Note: no positive results) was inactive. `CCN(CC)C(=S)[S-].CCN(CC)C(=S)[S-].[Zn+2]`: under setting [2], the outcome is “inactive; no positive results”. Regarding `CCCCCC(N)=O`, the Potency under setting [7] is 16.9 mmol/kg/day. For `c1ccc2[nH]c(-c3cscn3)nc2c1`, under setting [2], the outcome is “inactive; no positive results”. For the compound `CN(C)N=O`, the Potency (TD50_Mouse_Note: TD50 is harmonic mean of more than one positive test, TargetSites_Mouse_Female: lung, nervous system) is 0.00255 mmol/kg/day. As for `ClC1=C(Cl)C(Cl)(Cl)C(Cl)=C1Cl`, under setting [2], the outcome is “inactive; no positive results”. Consider `NC(=O)NNc1ccccc1`, for which, under setting [6], the Potency was 1.09 mmol/kg/day. As for `CNN`, the Potency was 0.164 mmol/kg/day under setting [4] and 0.0189 mmol/kg/day under setting [6]. Turning to `O=C(O)c1[nH]n(-c2ccc(S(=O)(=O)O)cc2)c(=O)c1N=Nc1ccc(S(=O)(=O)O)cc1`, the outcome under setting [2] was “inactive; no positive results”. For `OC[C@@H](O)[C@@H](O)[C@H](O)[C@H](O)CO[C@H]1O[C@H](CO)[C@@H](O)[C@H](O)[C@H]1O`, the outcome under setting [2] was “inactive; no positive results”. `O=S(O)S(=O)(=O)O`: the outcome under setting [2] is “inactive; no positive results”. As to `Cc1ccc2c(c1N)C(=O)c1ccccc1C2=O`, under setting [8], the Potency was 0.733 mmol/kg/day. With `CCc1nc(N)nc(N)c1-c1ccc(Cl)cc1`, the outcome under setting [2] was “inactive; ntp bioassay inadequate”. For `O.O=S(=O)([O-])[O-].[Mn+2]`, the outcome under setting [2] is “inactive; no positive results”. For the compound `CN(C)CCOC(C)(c1ccccc1)c1ccccn1` (stereo not drawn), the Potency (TD50_Mouse_Note: TD50 is harmonic mean of more than one positive test, TargetSites_Mouse_Female: liver, thyroid gland) was 0.538 mmol/kg/day. Regarding `CCN(CC)C(=O)c1cccc(C)c1`, the outcome under setting [2] is “inactive; no positive results”.

Take `CCC(C)c1cc([N+](=O)[O-])cc([N+](=O)[O-])c1O` (stereo not drawn): under setting [2], the outcome is “inactive; no positive results”. Take `CNC(=O)Oc1cc(C)c(N(C)C)c(C)c1`: the outcome under setting [2] is “inactive; no positive results”. Consider `COc1ccc(O)c(C(C)(C)C)c1`, for which the Potency (TD50_Mouse_Note: TD50 is harmonic mean of more than one positive test, no positive results are statistically significant, TargetSites_Mouse_Female: no positive results) is 30.7 mmol/kg/day. As to `Cc1ccc(N=Nc2c(O)ccc3ccccc23)c([N+](=O)[O-])c1`, under setting [7], the Potency was 116 mmol/kg/day. For `CCn1c2ccccc2c2cc(N)ccc21`, under “TD50_Mouse_Note: TD50 is harmonic mean of more than one positive test, TD50_Mouse_mmol was not calculated for this mixture, but Activiity, TargetSites_Mouse_Female: liver”, the outcome is “active; liver”. Besides, the Potency under setting [1] was 0.156 mmol/kg/day. Regarding `Nc1ccc(Cc2ccc(N)c(Cl)c2)cc1Cl`, under setting [8], the Potency is 0.196 mmol/kg/day. As for `CC(C)(CCCOc1ccc(OCCCC(C)(C)C(=O)O)c(-c2ccccc2)c1)C(=O)O`, under setting [1], the Potency is 0.125 mmol/kg/day. With `C=Cc1ccc(C)cc1`, under setting [2], the outcome is “inactive; no positive results”. For the compound `C=CC(=O)OCC`, under setting [9], the Potency was 3.24 mmol/kg/day. In the case of `Oc1ccccc1O`, under setting [9], the Potency is 2.22 mmol/kg/day.

For the compound `[O-][Br+2]([O-])O`, the Potency under setting [7] is 0.322 mmol/kg/day.

For the compound `ClC1=C(Cl)C2(Cl)C3C(Cl)OC(Cl)C3C1(Cl)C2(Cl)Cl` (stereo not drawn), the outcome under setting [2] was “inactive; no positive results”. As to `CCCCCCC(=O)/C=C/CCCCCCCCC(=O)OC`, the result (TargetSites_Mouse_BothSexes: no positive results) was inactive. Consider `O=P1(N(CCCl)CCCl)NCCCO1` (stereo not drawn), for which the Potency (TD50_Mouse_Note: positive test results only by intraperitoneal or intravenous injection, TD50 is harmonic mean of more than one positive, TargetSites_Mouse_Female: hematopoietic system, lung) was 0.0228 mmol/kg/day. As to `COc1ccc(C(=O)/C(Br)=C\C(=O)O)cc1`, the outcome under setting [2] was “inactive; no positive results”.

Take `OC(Cn1cncn1)(Cn1cncn1)c1ccc(F)cc1F`: under setting [2], the outcome is “inactive; no positive results”.

Regarding `C[C@](N)(Cc1ccc(O)c(O)c1)C(=O)O`, the outcome under setting [2] was “inactive; no positive results”. As for `Cc1ccccc1N`, under setting [10], the Potency was 5.85 mmol/kg/day.

As for `C=Cc1cccc(C)c1`, under setting [2], the outcome was “inactive; no positive results”.

Turning to `c1ccc(C2CO2)cc1` (stereo not drawn), under setting [9], the Potency is 0.982 mmol/kg/day.

With `Cc1noc(NS(=O)(=O)c2ccc(N)cc2)c1C`, the outcome under setting [2] was “inactive; no positive results”. The same measure, in the same setting: for `Cc1cc(O)c(C(C)(C)C)cc1Sc1cc(C(C)(C)C)c(O)cc1C` the value was “inactive; no positive results”. As to `C=CCOC(=O)c1ccccc1C(=O)OCC=C`, the outcome under setting [2] was “inactive; no positive results”. Same read-out and setting: then `Cc1ccc(C)c(OCCCC(C)(C)C(=O)O)c1`, with “inactive; no positive results”.

In the case of `Nc1ccc(-c2ccc(N)c(N)c2)cc1N`, under setting [7], the Potency is 0.8 mmol/kg/day. For `c1ccc2c(c1)ccc1cc3c(ccc4ccccc43)cc12`, the Potency was 0.0211 mmol/kg/day. `CC(CN1c2ccccc2Sc2ccccc21)N(C)C` (stereo not drawn): the outcome under setting [2] was “inactive; no positive results”. Take `CCCCOC(=O)COc1ccc(Cl)cc1Cl`: the outcome under setting [2] is “inactive; no positive results”. For `Nc1ccc2nc3ccccn3c2n1`, the Potency under setting [10] is 0.0869 mmol/kg/day. For the compound `CCSCCC(N)C(=O)O` (stereo not drawn), under setting [3], the Potency was 0.437 mmol/kg/day. For `Cc1ccc(N)cc1Cl`, the outcome under setting [2] was “inactive; no positive results”.

In the case of `NS(=O)(=O)c1cc(C(=O)O)c(NCc2ccco2)cc1Cl`, the Potency (TargetSites_Mouse_Female: mammary gland) was 2.21 mmol/kg/day. As for `CCOC(=O)C(C)(C)Oc1ccc(Cl)cc1`, under setting [2], the outcome was “inactive; no positive results”. Turning to `CC(C)(c1ccc(O)cc1)c1ccc(O)cc1`, the outcome under setting [2] was “inactive; no positive results”. In the case of `O=S(=O)(O)O`, the Potency (TD50_Mouse_Note: TD50 is harmonic mean of more than one positive test, greater than ten-fold variation among TD50 values for positive res, TargetSites_Mouse_Female: liver, lung) is 0.0583 mmol/kg/day. Turning to `CCBr`, the Potency (TargetSites_Mouse_Female: uterus) is 4.91 mmol/kg/day.

As to `CCC(Cl)CCC(Cl)C(Cl)CC(Cl)C(Cl)C(Cl)CCl` (stereo not drawn), the outcome (TD50_Mouse_Note: TD50 is harmonic mean of more than one positive test, TD50_Mouse_mmol was not calculated for this mixture, but Activiity, TargetSites_Mouse_Female: liver, thyroid gland) is “active; liver”.

Consider `O=P(OCC(Br)CBr)(OCC(Br)CBr)OCC(Br)CBr` (stereo not drawn), for which the Potency (TD50_Mouse_Note: TD50 is harmonic mean of more than one positive test, TargetSites_Mouse_Female: liver, lung, stomach) was 0.183 mmol/kg/day. With `CC(Cc1ccccc1)NN` (stereo not drawn), the outcome under setting [2] was “inactive; no positive results”.

For `O=c1ccc2ccccc2o1`, the Potency under setting [4] was 0.705 mmol/kg/day.

`C[C@]12CC[C@@H]3c4ccc(OC(=O)Cc5ccc(N(CCCl)CCCl)cc5)cc4CC[C@H]3[C@@H]1CC[C@@H]2OC(=O)Cc1ccc(N(CCCl)CCCl)cc1`: the Potency (TD50_Mouse_Note: TD50 is harmonic mean of more than one positive test, TargetSites_Mouse_Female: hematopoietic system, lung, myocardium, stomach) was 0.00184 mmol/kg/day.

For `C=C1C(C)(C)[C@@]2(Cl)C(Cl)[C@]1(Cl)C(Cl)(Cl)C2(Cl)Cl` (stereo partly drawn), the Potency (TD50_Mouse_Note: TD50 is harmonic mean of more than one positive test, TargetSites_Mouse_Female: no positive results) is 0.00234 mmol/kg/day. In the case of `CC(=O)NNc1ccc(CO)cc1`, the Potency (TD50_Mouse_Note: TD50 is harmonic mean of more than one positive test, TargetSites_Mouse_Female: lung, vascular system) is 1.34 mmol/kg/day.

On to `Cc1cccc(Nc2cc(Cl)nc(SCC(=O)O)n2)c1C`, for which, under setting [5], the Potency was 0.0334 mmol/kg/day.
